Experiment [1] relates to 1445 mouse melanoma cells. Description: WST-1 cell proliferation assay. In kind it is cell-based. The following applies: 0, 10 and 30 μM. As to the method: (§1) The colorimetric assay (WST-1 reagent) from Roche (11644807001) was performed in 96 well white clear bottom plates (Costar, 3610). 1,000 cells were seeded per well (in quadruplicate) overnight, and PBIT was added to the cells to the indicated concentration for 72 hrs. 0.01% DMSO was included as the control. The WST-1 reagent was added (5 μl per well) for 4 hrs, and OD 440 nm absorbance (which reflects the number of viable cells) was measured with the BioTek Synergy Mx Platereader.
A panel of mouse and human melanoma cells was treated with 0, 10 and 30 μM PBIT and their proliferation rates were assessed using WST-1 assays.

For a further experiment, the target named is T1, UTX (Homo sapiens, UniProt O15550).
T1 construct: His (N); FLAG (N); made in house; host or cells: Sf21 insect cells (baculovirus)
T1 sequence (O15550 whole entry): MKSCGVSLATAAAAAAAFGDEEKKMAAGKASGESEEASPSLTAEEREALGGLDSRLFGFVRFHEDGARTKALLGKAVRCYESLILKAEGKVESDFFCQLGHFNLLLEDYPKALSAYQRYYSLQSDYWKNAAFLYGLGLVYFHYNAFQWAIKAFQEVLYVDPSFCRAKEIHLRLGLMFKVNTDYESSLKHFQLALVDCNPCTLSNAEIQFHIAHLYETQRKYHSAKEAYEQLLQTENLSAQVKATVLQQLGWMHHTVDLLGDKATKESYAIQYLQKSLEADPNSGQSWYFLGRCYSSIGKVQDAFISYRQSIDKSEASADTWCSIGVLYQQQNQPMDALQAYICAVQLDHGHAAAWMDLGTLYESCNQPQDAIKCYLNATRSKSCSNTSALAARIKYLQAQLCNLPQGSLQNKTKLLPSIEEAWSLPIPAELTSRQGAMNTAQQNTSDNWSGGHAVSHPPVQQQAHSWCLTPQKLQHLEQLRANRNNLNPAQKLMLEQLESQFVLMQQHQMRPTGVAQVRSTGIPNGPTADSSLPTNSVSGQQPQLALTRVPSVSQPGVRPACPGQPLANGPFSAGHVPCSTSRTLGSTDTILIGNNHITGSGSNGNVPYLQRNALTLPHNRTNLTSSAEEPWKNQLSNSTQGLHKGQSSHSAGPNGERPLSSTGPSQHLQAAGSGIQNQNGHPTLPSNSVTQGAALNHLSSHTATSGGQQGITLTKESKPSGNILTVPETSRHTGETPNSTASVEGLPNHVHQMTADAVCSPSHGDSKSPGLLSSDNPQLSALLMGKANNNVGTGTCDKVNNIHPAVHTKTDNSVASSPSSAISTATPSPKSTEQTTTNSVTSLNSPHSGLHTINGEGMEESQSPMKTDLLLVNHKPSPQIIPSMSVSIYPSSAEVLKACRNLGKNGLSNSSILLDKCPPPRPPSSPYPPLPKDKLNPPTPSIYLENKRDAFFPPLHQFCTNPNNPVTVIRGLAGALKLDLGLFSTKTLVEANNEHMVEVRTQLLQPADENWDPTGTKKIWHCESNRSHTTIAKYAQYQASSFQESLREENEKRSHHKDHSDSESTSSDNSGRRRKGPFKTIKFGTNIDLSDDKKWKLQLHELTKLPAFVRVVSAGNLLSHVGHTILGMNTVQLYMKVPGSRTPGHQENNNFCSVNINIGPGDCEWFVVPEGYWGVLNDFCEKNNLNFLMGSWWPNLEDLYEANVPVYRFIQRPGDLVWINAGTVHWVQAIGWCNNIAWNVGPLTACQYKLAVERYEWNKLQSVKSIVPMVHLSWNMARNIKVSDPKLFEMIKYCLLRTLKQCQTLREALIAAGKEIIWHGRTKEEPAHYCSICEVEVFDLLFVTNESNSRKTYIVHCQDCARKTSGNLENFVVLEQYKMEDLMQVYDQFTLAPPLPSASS
The experiment can be described thus: His-FLAG-UTX H3K27me3 demethylase assay with AlphaScreen detection. In kind it is biochemical. The following applies: compound 10 μM, 64 nM bio-H3K27me3 peptide. As to the method: (§2) Histone demethylase assays were performed in 384 well white plates (Corning 3574). Demethylase buffer conditions for FLAG-JARID1B were as follows: 10 μM α-KG, 100 μM ascorbate, 50 μM (NH4)2Fe(SO4)2, 50 mM Hepes (pH 7.5), 0.01% (v/v) Tween 20, and 0.1% (w/v) bovine serum albumin. The demethylase reactions included 64 nM bio-H3K4me3 peptide alone or in the presence of 4 nM FLAG-JARID1B enzyme in a 10 μl reaction at 25° C. for 30 minutes. As a positive control, 64 nM bio-H3K4me2 peptide was assayed in the absence of enzyme. Assay conditions for FLAG-JARID1C is the same as for FLAG-JARID1B except that 20 nM enzyme was used. For FLAG-JARID1A, the demethylase buffer was similar to FLAG-JARID1B, except that 125 μM α-KG and 13 nM FLAG-JARID1A enzyme were used. […]
(§3) The AlphaScreen General IgG (Protein A) detection kit was obtained from PerkinElmer. Demethylated H3K4 products were detected using AlphaScreen antibody/bead mix containing 7.5 mM ethylenediaminetetraacetic acid (EDTA) and 0.15 μg/ml anti-H3K4me1 antibody in a final volume of 20 μl. […] The luminescence signal was measured using the Envision (PerkinElmer) or Pherastar (BMG Labtech) Platereaders.
(Alpha assays give light when donor and acceptor beads are brought close together.)

Another experiment deals with MCF10A cells. Description: WST-1 cell proliferation assay. In kind it is cell-based, human. The following applies: 10 μM, 72 hrs. As to the method: as §1
(Formazan colour is commonly taken as a measure of viable cells.)

The subject of another experiment is UACC-812 cells. The experiment can be described thus: WST-1 cell proliferation assay. Format: cell-based, human. The following applies: 10 μM, 72 hrs. On the procedure:
as §1

The subject of experiment [2] is MCF7 cells. Description: WST-1 cell proliferation assay. To be noted: 10 μM, 72 hrs. In kind it is cell-based, human. On the procedure: as §1
The next experiment addresses T2, JMJD3 (Homo sapiens, UniProt O15054).
T2 construct: FLAG (N); purchased BPS Bioscience 50115
Description: FLAG-JMJD3 H3K27me3 demethylase assay with AlphaScreen detection. Format: biochemical. The following applies: compound 10 μM, 64 nM bio-H3K27me3 peptide. On the procedure:
as §2, §3

Experiment [3] has as its system MCF7 cells. The experiment can be described thus: Histone extraction and western blot of H3K4 methylation. Format: cell-based, human. The following applies: 10 μM, 72 hours, histone extracts. On the procedure:
MCF7 cells treated with PBIT (10 μM) or DMSO (0.1%) for 72 hours were harvested and lysed with PBS containing 0.5% Triton X-100. Nuclei were spun down by centrifugation at 6,500×g for 10 minutes, and the pellets were re-suspended in 0.2 N HCl. The histones were extracted overnight, and cellular debris was removed by centrifugation. The samples were loaded onto 16% SDS-PAGE gels and probed with antibodies against H3K4me3, H3K4me2, H3K4me1 and H3.
To determine whether PBIT affects H3K4 methylation globally in vivo, H3K4 methylation levels were analyzed in histone extracts prepared from MCF7 cells after exposure to PBIT.

The test system of experiment [4] is SKBR3-S cells (trastuzumab sensitive). The experiment can be described thus: WST-1 cell proliferation assay. In kind it is cell-based. To be noted: 30 μM. As to the method:
as §1

The next experiment deals with T3, JARID1A (Homo sapiens, UniProt P29375).
T3 construct: the high-throughput screen of the invention utilizes full length JARID1A or JARID1B; FLAG (N); made in house; host or cells: Sf21 insect cells (baculovirus)
T3 sequence (P29375 whole entry): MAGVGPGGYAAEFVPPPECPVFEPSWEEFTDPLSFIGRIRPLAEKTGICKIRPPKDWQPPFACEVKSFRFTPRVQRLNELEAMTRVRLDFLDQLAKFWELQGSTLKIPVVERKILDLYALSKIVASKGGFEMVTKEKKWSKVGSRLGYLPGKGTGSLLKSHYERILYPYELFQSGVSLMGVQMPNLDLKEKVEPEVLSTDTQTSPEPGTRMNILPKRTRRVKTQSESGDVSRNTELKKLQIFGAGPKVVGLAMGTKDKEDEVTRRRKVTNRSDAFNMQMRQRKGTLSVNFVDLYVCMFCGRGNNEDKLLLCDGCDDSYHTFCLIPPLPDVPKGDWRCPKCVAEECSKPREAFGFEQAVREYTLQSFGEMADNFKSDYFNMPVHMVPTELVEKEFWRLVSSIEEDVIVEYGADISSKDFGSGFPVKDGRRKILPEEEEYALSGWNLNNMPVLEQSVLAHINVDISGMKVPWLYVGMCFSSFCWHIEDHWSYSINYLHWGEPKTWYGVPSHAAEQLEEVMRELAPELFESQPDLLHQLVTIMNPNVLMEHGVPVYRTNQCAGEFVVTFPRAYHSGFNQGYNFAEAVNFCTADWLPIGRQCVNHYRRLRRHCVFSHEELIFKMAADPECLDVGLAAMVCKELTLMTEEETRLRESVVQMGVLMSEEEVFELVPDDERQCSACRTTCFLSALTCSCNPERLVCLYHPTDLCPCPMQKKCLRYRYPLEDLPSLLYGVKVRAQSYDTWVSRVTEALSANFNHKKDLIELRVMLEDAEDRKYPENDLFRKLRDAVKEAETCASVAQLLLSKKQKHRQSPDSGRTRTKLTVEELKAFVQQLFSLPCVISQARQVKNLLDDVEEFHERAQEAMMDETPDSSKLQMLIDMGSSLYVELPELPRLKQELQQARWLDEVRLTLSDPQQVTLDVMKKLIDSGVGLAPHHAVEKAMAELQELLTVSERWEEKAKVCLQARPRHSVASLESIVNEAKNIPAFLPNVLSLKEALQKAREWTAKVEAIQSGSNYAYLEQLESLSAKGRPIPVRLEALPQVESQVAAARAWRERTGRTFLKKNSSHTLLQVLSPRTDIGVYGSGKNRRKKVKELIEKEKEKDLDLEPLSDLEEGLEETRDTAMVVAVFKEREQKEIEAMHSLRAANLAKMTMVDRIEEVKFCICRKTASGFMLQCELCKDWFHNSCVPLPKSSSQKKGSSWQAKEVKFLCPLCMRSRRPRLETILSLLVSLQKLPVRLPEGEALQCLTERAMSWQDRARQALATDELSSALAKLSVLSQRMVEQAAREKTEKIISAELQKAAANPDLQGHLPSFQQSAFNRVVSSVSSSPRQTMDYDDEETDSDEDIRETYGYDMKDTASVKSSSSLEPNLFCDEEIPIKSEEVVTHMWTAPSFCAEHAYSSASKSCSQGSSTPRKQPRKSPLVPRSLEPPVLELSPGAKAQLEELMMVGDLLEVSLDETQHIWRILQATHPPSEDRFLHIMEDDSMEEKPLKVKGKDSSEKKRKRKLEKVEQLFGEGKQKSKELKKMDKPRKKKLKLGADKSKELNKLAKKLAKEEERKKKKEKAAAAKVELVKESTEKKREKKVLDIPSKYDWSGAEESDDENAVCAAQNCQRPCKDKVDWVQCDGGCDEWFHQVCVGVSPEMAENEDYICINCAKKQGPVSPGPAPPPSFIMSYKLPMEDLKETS
Description: FLAG-JARID1A histone demethylase assay with AlphaScreen detection (HTS and dose response). Format: biochemical. On the procedure: Histone demethylase assays were performed in 384 well white plates (Corning 3574). Demethylase buffer conditions for FLAG-JARID1B were as follows: 10 μM α-KG, 100 μM ascorbate, 50 μM (NH4)2Fe(SO4)2, 50 mM Hepes (pH 7.5), 0.01% (v/v) Tween 20, and 0.1% (w/v) bovine serum albumin. The demethylase reactions included 64 nM bio-H3K4me3 peptide alone or in the presence of 4 nM FLAG-JARID1B enzyme in a 10 μl reaction at 25° C. for 30 minutes. As a positive control, 64 nM bio-H3K4me2 peptide was assayed in the absence of enzyme. Assay conditions for FLAG-JARID1C is the same as for FLAG-JARID1B except that 20 nM enzyme was used. For FLAG-JARID1A, the demethylase buffer was similar to FLAG-JARID1B, except that 125 μM α-KG and 13 nM FLAG-JARID1A enzyme were used. The His-FLAG-UTX and FLAG-JMJD3 demethylase assays also employed the same buffer conditions as for FLAG-JARID1B, with 64 nM bio-H3K27me3 peptide assayed with or without 25 nM His-FLAG-UTX enzyme or 50 nM FLAG-JMJD3 (BPS Bioscience, 50115), and 64 nM bio-H3K27me2 peptide as a positive control. JARID1A, JARID1C, UTX, and JMJD3 histone demethylase assays proceeded at 37° C. for 1 hour.
The AlphaScreen General IgG (Protein A) detection kit was obtained from PerkinElmer. Demethylated H3K4 products were detected using AlphaScreen antibody/bead mix containing 7.5 mM ethylenediaminetetraacetic acid (EDTA) and 0.15 μg/ml anti-H3K4me1 antibody in a final volume of 20 μl. For detection of demethylated H3K27 products, the AlphaScreen antibody/bead mix containing 7.5 mM EDTA and 0.15 μg/ml anti-H3K27me2 antibody in a final volume of 20 μl. The luminescence signal was measured using the Envision (PerkinElmer) or Pherastar (BMG Labtech) Platereaders.
FLAG-JARID1A was screened against 9,600 compounds. These compound libraries were from the Yale Center for Molecular Discovery. The libraries screened include the MicroSource Gen-Plus, MicroSource Pure Natural Products, NIH Clinical Collection, Enzo Epigenetics, and ChemBridge MW-Set libraries. Compounds dissolved in dimethyl sulfoxide (DMSO) were pintooled into a 384 well plate containing bio-H3K4me3 peptide in demethylase buffer to a final concentration of 20 μM. The reactions were initiated by the addition of 13 nM FLAG-JARID1A, and detected as described above. To eliminate the false positive hits, a counterscreen was performed against bio-H3K4me2 in the absence of enzyme.

For another experiment, the target named is T4, JMJD2E (Homo sapiens, UniProt B2RXH2).
T4 sequence (B2RXH2 1-337 limits assumed): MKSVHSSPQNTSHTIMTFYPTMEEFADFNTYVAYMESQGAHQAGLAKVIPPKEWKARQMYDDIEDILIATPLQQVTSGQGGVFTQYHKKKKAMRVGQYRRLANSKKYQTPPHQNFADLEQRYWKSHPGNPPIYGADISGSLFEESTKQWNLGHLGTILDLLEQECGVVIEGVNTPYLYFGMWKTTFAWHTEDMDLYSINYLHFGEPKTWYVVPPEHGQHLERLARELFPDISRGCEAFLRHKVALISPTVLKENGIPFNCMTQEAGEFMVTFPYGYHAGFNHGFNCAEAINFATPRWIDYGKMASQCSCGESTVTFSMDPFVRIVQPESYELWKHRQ
To be noted: King et al., 2010; cited from earlier work.

Where “and” joins values, the source holds several entries; their conditions need not be identical. Identical values can stand only once. Entries after “also recorded” stand apart in the source; their conditions may differ.

T2 sequence (O15054 1-1682 isoform O15054-1): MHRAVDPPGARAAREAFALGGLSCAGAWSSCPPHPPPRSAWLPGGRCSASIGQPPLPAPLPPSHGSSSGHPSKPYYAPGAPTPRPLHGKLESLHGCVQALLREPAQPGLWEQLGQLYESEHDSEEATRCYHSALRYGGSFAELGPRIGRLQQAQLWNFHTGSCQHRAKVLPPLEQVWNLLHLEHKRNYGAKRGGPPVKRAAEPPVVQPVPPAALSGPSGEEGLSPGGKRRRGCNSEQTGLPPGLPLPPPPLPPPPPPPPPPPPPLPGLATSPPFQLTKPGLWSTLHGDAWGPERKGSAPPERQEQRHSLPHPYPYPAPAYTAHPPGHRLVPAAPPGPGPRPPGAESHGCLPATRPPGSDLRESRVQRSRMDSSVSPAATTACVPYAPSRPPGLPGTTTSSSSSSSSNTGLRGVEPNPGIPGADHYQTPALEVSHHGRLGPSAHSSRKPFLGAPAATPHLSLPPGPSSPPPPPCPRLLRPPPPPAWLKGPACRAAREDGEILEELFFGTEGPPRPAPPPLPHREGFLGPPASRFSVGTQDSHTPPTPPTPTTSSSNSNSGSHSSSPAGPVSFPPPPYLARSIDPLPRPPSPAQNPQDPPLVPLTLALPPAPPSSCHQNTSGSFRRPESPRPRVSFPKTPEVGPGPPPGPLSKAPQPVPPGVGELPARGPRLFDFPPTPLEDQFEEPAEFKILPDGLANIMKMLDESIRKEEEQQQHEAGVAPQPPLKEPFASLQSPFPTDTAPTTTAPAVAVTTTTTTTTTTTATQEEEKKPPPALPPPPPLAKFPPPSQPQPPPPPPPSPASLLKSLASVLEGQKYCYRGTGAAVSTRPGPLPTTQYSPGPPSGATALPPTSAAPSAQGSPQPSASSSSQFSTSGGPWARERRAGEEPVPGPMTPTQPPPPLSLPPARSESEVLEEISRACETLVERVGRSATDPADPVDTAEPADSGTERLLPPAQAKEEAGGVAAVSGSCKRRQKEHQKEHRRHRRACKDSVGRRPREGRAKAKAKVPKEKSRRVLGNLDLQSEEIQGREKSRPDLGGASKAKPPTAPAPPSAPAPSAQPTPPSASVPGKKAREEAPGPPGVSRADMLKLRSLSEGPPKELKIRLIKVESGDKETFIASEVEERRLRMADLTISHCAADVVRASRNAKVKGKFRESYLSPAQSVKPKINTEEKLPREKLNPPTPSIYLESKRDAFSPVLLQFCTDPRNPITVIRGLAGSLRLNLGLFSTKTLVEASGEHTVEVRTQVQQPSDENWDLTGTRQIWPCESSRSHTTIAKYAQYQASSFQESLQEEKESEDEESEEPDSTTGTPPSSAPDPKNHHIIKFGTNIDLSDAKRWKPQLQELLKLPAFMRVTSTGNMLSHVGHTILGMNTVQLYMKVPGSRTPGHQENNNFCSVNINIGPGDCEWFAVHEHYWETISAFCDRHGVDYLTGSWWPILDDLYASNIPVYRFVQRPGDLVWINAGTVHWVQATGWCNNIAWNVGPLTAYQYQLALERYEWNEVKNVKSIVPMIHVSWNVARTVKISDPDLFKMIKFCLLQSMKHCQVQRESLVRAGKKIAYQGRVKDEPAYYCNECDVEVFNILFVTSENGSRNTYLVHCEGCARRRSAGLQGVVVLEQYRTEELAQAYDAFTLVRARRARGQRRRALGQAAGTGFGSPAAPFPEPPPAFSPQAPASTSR

As usually defined, the IC50 is the midpoint of a concentration-inhibition curve. `Cc1ccc(-n2sc3ccccc3c2=O)cc1` [PBIT, 2-4(4-methylphenyl)-1,2-benzisothiazol-3(2H)-one]: in experiment [1], the “sensitivity of proliferation to treatment (WST-1)” value is reported as “most sensitive”. Moreover, on UTX, the UTX demethylase activity entry is on record as “minimal effect; also recorded: did not inhibit”. The “cell proliferation (WST-1)” value with MCF10A cells is recorded as “minimal toxicity”; in the experiment with UACC-812 cells, “killed most”; with MCF7 cells [2], “did not inhibit growth; also recorded: minimal toxicity”; in experiment [4], “small inhibitory effects”. Besides, the JMJD3 demethylase activity result on JMJD3 is listed as “minimal effect; also recorded: did not inhibit”. For the same compound, in the experiment with MCF7 cells [3], the H3K4me1 levels entry is “did not change significantly”. Further, the H3K4me2 levels result in the experiment with MCF7 cells [3] is recorded as “did not change significantly”. In addition, the H3K4me3 levels result in the experiment with MCF7 cells [3] is reported as “increased; also recorded: dramatic increase”. The JARID1A demethylase activity result on JARID1A (compound 10 μM, 64 nM bio-H3K4me3 peptide) is “inhibited”. Also, the IC50 on JARID1A (dose response, 50 μM Fe (II), read-out: IC50 against JARID1A) was 6 µM and ~6 µM; on JMJD2E, 28 µM.

Source of the values: patent publication US20150272939A1, “Identification of Small Molecule Inhibitors of Jumonji AT-Rich Interactive Domain 1A (JARID1A) and 1B (JARID1B) Histone Demethylase” (Yale University, priority 2012, published 2015).
